Data on 15 compounds can be found in patent US11178871B2, “Herbicidal pyrimidine compounds” (BASF SE, priority 2016, dated 2021).

What all share (assay type): in vivo
For one assay, the system named is Echinocloa crus-galli. Briefly: greenhouse test, post-emergence treatment, ECHCG. The method, boiled down: (§1)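 Plants grown in loamy sand (~3.0% humus) to 3–15 cm height, then sprayed post-emergence with active ingredient suspended or emulsified in water. Kept at 10–25 °C or 20–35 °C by species for 2–4 weeks; damage scored visually 0–100 (100 = complete destruction of aerial parts, 0 = normal growth).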

Assay [1] concerns Apera spica-venti. Briefly: greenhouse test, post-emergence treatment, APESV. An excerpt: (§2) The culture containers used were plastic flowerpots containing loamy sand with approximately 3.0% of humus as the substrate. The seeds of the test plants were sown separately for each species.
(§3) For the post-emergence treatment, the test plants were first grown to a height of 3 to 15 cm, depending on the plant habit, and only then treated with the active ingredients which had been suspended or emulsified in water. For this purpose, the test plants were either sown directly and grown in the same containers, or they were first grown separately as seedlings and transplanted into the test containers a few days prior to treatment.
(§4) Depending on the species, the plants were kept at 10-25° C. or 20-35° C., respectively.
(§5) The test period extended over 2 to 4 weeks. During this time, the plants were tended, and their response to the individual treatments was evaluated.
(§6) Evaluation was carried out using a scale from 0 to 100. 100 means no emergence of the plants, or complete destruction of at least the aerial moieties, and 0 means no damage, or normal course of growth. A good herbicidal activity is given at values of at least 70 and a very good herbicidal activity is given at values of at least 85.
(§7) The plants used in the greenhouse experiments were of the following species: […]

A further assay has as its system Alopecurus myosuroides. Briefly: greenhouse test, post-emergence treatment, ALOMY. The procedure, abridged: as §1
The subject of assay [2] is Amaranthus retroflexus. As to the kind of experiment: greenhouse test, post-emergence treatment, AMARE. The procedure, abridged: as §1
The test system of another assay is Polygonum convolvulus. As to the kind of experiment: greenhouse test, post-emergence treatment, POLCO.
Text: as §2, §3, §4, §5, §6, §7

The test system of assay [3] is Apera spica-venti. Briefly: greenhouse test, pre-emergence treatment, APESV. The procedure, abridged:
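Damage scored visually on a 0-100 scale (100 = no emergence or complete destruction of aerial parts, 0 = normal growth) after 2 to 4 weeks. Treatment was applied pre-emergence as an aqueous suspension or emulsion immediately after sowing in loamy sand (approx. 3.0% humus).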

The subject of assay [4] is Amaranthus retroflexus. As to the kind of experiment: greenhouse test, pre-emergence treatment, AMARE.
Text: as §2
For the pre-emergence treatment, the active ingredients, which had been suspended or emulsified in water, were applied directly after sowing by means of finely distributing nozzles. The containers were irrigated gently to promote germination and growth and subsequently covered with transparent plastic hoods until the plants had rooted. This cover caused uniform germination of the test plants, unless this had been impaired by the active ingredients.
as §4, §5, §6, §7

A further assay concerns Setaria viridis. As to the kind of experiment: greenhouse test, post-emergence treatment, SETVI. The note with it: 1000 g/ha. The procedure, abridged: as §1
The subject of a further assay is Abutilon theophrasti. As to the kind of experiment: greenhouse test, post-emergence treatment, ABUTH. As to conditions: 2000 g/ha.
Text: as §2, §3, §4, §5, §6, §7

For the next assay, the system named is Matricaria inodora. Briefly: greenhouse test, post-emergence treatment, MATIN. The note with it: 2000 g/ha.
Text: as §2, §3, §4, §5, §6, §7

Setting [5] is: 500 g/ha, printed under post-emergence, method not restated.
Setting [6] is: 1000 g/ha, printed under post-emergence, method not restated.

For the compound `Cc1nc(C)c(-c2nc(C3CC3)ncc2-c2c(F)cccc2Cl)o1` [Ex. 309], the herbicidal activity entry with Echinocloa crus-galli (post-emergence, 1000 g/ha) is “very good (a very good herbicidal activity is given at values of at least 85)”; in the assay on Apera spica-venti [1] (1000 g/ha), “very good (a very good herbicidal activity is given at values of at least 85)”; in the assay on Alopecurus myosuroides (post-emergence, 1000 g/ha), “very good (a very good herbicidal activity is given at values of at least 85)”; in the assay with Amaranthus retroflexus [2] (1000 g/ha), “very good (a very good herbicidal activity is given at values of at least 85)”.

`OCc1nc(C2CC2)ncc1-c1ccccc1Br` [Ex. 13]: the herbicidal activity entry with Echinocloa crus-galli (post-emergence, 250 g/ha) is on record as “very good (a very good herbicidal activity is given at values of at least 85)”; in the assay on Polygonum convolvulus (250 g/ha), “very good (a very good herbicidal activity is given at values of at least 85)”; in the assay with Alopecurus myosuroides (post-emergence, 250 g/ha) it was “very good (a very good herbicidal activity is given at values of at least 85)”; in the assay on Apera spica-venti [3] (250 g/ha), “very good (a very good herbicidal activity is given at values of at least 85)”.

In the case of `OC(c1cccs1)C(O)c1nc(C2CC2)ncc1-c1ccccc1Cl` (centres unmarked) [Ex. 246], in the assay with Amaranthus retroflexus [4] (500 g/ha), the herbicidal activity entry is “very good (a very good herbicidal activity is given at values of at least 85)”.

With `Cc1ccc(-c2nc(C3CC3)ncc2-c2ccccc2I)o1` [Ex. 108], the herbicidal activity result is reported as “very good (a very good herbicidal activity is given at values of at least 85)” with Polygonum convolvulus (500 g/ha) and “good (A good herbicidal activity is given at values of at least 70)” in the assay with Alopecurus myosuroides (post-emergence, 500 g/ha).

On to `Cc1nc(O)oc1-c1nc(C2CC2)ncc1-c1ccccc1Br` [Ex. 312], for which the herbicidal activity entry in the assay with Echinocloa crus-galli (setting [5]) is listed as “very good (a very good herbicidal activity is given at values of at least 85)”; in the assay with Echinocloa crus-galli (post-emergence, 500 g/ha), “very good (a very good herbicidal activity is given at values of at least 85)”; in the assay with Polygonum convolvulus (500 g/ha), “very good (a very good herbicidal activity is given at values of at least 85)”; in the assay with Apera spica-venti [1] (500 g/ha), “very good (a very good herbicidal activity is given at values of at least 85)”; in the assay on Alopecurus myosuroides (setting [5]) it was “very good (a very good herbicidal activity is given at values of at least 85)”; in the assay on Alopecurus myosuroides (post-emergence, 500 g/ha), “very good (a very good herbicidal activity is given at values of at least 85)”.

Regarding `OC1(c2nc(C3CC3)ncc2-c2ccccc2Cl)C(F)(F)C(F)(F)C(F)(F)C(F)(F)C1(F)F` [Ex. 229], the herbicidal activity entry in the assay with Amaranthus retroflexus [4] (1000 g/ha) is reported as “good (A good herbicidal activity is given at values of at least 70)”; in the assay on Apera spica-venti [3] (1000 g/ha) it was “very good (a very good herbicidal activity is given at values of at least 85)”.

Consider `CCc1nc(CC)c(-c2nc(C3CC3)ncc2-c2ccccc2Cl)o1` [Ex. 310], for which the herbicidal activity entry was “very good (a very good herbicidal activity is given at values of at least 85)” in the assay on Echinocloa crus-galli (setting [5]); “very good (a very good herbicidal activity is given at values of at least 85)” in the assay on Polygonum convolvulus (500 g/ha); “very good (a very good herbicidal activity is given at values of at least 85)” in the assay with Apera spica-venti [1] (500 g/ha); “very good (a very good herbicidal activity is given at values of at least 85)” in the assay on Alopecurus myosuroides (setting [5]); “very good (a very good herbicidal activity is given at values of at least 85)” in the assay on Alopecurus myosuroides (post-emergence, 500 g/ha); “very good (a very good herbicidal activity is given at values of at least 85)” in the assay with Amaranthus retroflexus [2] (500 g/ha).

For `Cc1cnc(-c2nc(C3CC3)ncc2-c2ccccc2Cl)o1` [Ex. 314], the herbicidal activity result is reported as “very good (a very good herbicidal activity is given at values of at least 85)” in the assay on Echinocloa crus-galli (setting [6]); “very good (a very good herbicidal activity is given at values of at least 85)” in the assay with Echinocloa crus-galli (post-emergence, 1000 g/ha); “very good (a very good herbicidal activity is given at values of at least 85)” in the assay with Setaria viridis; “very good (a very good herbicidal activity is given at values of at least 85)” in the assay with Apera spica-venti [1] (1000 g/ha); “very good (a very good herbicidal activity is given at values of at least 85)” in the assay with Amaranthus retroflexus [2] (1000 g/ha).

As to `COc1ncc(OC)c(-c2nc(C3CC3)ncc2-c2ccccc2Cl)n1` [Ex. 251], in the assay with Amaranthus retroflexus [4] (500 g/ha), the herbicidal activity entry is recorded as “very good (a very good herbicidal activity is given at values of at least 85)”.

On to `Clc1ccccc1-c1cnc(C2CC2)nc1-c1ncco1` [Ex. 315], for which the herbicidal activity entry in the assay on Echinocloa crus-galli (2000 g/ha, printed under post-emergence, method not restated) is given as “very good (a very good herbicidal activity is given at values of at least 85)”; in the assay on Echinocloa crus-galli (post-emergence, 2000 g/ha), “very good (a very good herbicidal activity is given at values of at least 85)”; in the assay with Apera spica-venti [1] (2000 g/ha), “very good (a very good herbicidal activity is given at values of at least 85)”; in the assay with Alopecurus myosuroides (post-emergence, 2000 g/ha) it was “very good (a very good herbicidal activity is given at values of at least 85)”; in the assay on Amaranthus retroflexus [2] (2000 g/ha), “very good (a very good herbicidal activity is given at values of at least 85)”.

For `COC(C)Cc1nc(C2CC2)ncc1-c1ccccc1Cl` (centres unmarked) [Ex. 233], in the assay on Amaranthus retroflexus [4] (2000 g/ha), the herbicidal activity result is recorded as “very good (a very good herbicidal activity is given at values of at least 85)”.

In the case of `COC(=O)C(OC(C)=O)c1nc(C2CC2)ncc1-c1ccccc1Cl` (centres unmarked) [Ex. 222], the herbicidal activity entry with Abutilon theophrasti, in the assay with Matricaria inodora and in the assay with Amaranthus retroflexus [2] (2000 g/ha) was “very good (a very good herbicidal activity is given at values of at least 85)” in each case.

For `CCCc1nc(C)c(-c2nc(C3CC3)ncc2-c2ccccc2Cl)o1` [Ex. 313], the herbicidal activity entry with Echinocloa crus-galli (setting [6]) is given as “very good (a very good herbicidal activity is given at values of at least 85)”; in the assay with Echinocloa crus-galli (post-emergence, 1000 g/ha), “very good (a very good herbicidal activity is given at values of at least 85)”; in the assay on Setaria viridis, “very good (a very good herbicidal activity is given at values of at least 85)”; in the assay with Apera spica-venti [1] (1000 g/ha), “very good (a very good herbicidal activity is given at values of at least 85)”; in the assay with Alopecurus myosuroides (post-emergence, 1000 g/ha) it was “very good (a very good herbicidal activity is given at values of at least 85)”.

As to `COC(=O)C(C)c1nc(C2CC2)ncc1-c1ccccc1Cl` (centres unmarked) [Ex. 87], the herbicidal activity entry with Amaranthus retroflexus [4] (2000 g/ha) is recorded as “good (A good herbicidal activity is given at values of at least 70)”; with Alopecurus myosuroides (post-emergence, 2000 g/ha), “very good (a very good herbicidal activity is given at values of at least 85)”.

Turning to `CCc1nc(CC)c(-c2nc(C3CC3)ncc2-c2ccccc2Br)o1` [Ex. 311], the herbicidal activity result with Echinocloa crus-galli (setting [5]) is reported as “very good (a very good herbicidal activity is given at values of at least 85)”; in the assay on Polygonum convolvulus (500 g/ha), “very good (a very good herbicidal activity is given at values of at least 85)”; with Apera spica-venti [1] (500 g/ha) it was “very good (a very good herbicidal activity is given at values of at least 85)”; in the assay with Alopecurus myosuroides (setting [5]), “very good (a very good herbicidal activity is given at values of at least 85)”; in the assay on Alopecurus myosuroides (post-emergence, 500 g/ha) it was “very good (a very good herbicidal activity is given at values of at least 85)”; with Amaranthus retroflexus [2] (500 g/ha), “very good (a very good herbicidal activity is given at values of at least 85)”.
